This test deals with BDF1 mice, P388 leukemia ip, median survival T/C. Nature of the test: NCI In Vivo Anticancer Drug Screen. Data for tumor model P388 Leukemia (intraperitoneal) in B6D2F1 (BDF1) mice. The following applies: endpoint: median survival time, higher = longer survival. The procedure, abridged:
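Transplantable tumour in mice; compound vs vehicle dosing; survival scored; ratio of treated to control reported.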

[1] abbreviates: dose: 50.0 mg/kg/injection, schedule: Q01DX009 (ip), vehicle: saline with Tween-80.
[2] abbreviates: dose: 100.0 mg/kg/injection, schedule: Q01DX009 (ip), vehicle: saline with Tween-80.
[3] abbreviates: dose: 200.0 mg/kg/injection, schedule: Q01DX009 (ip), vehicle: saline with Tween-80.
Where [4] appears, read: dose: 100.0 mg/kg/injection, schedule: Q04DX003 (ip), vehicle: saline.
[5] abbreviates: dose: 200.0 mg/kg/injection, schedule: Q04DX003 (ip), vehicle: saline.
The mark [6] stands for this setting: dose: 400.0 mg/kg/injection, schedule: Q04DX003 (ip), vehicle: saline.
Setting [7] is: dose: 25.0 mg/kg/injection, schedule: Q04DX003 (ip), vehicle: saline with Tween-80.
[8] abbreviates: dose: 50.0 mg/kg/injection, schedule: Q04DX003 (ip), vehicle: saline with Tween-80.
Where [9] appears, read: dose: 100.0 mg/kg/injection, schedule: Q04DX003 (ip), vehicle: saline with Tween-80.
Where [10] appears, read: dose: 200.0 mg/kg/injection, schedule: Q04DX003 (ip), vehicle: saline with Tween-80.
Setting [11] is: dose: 400.0 mg/kg/injection, schedule: Q04DX003 (ip), vehicle: saline with Tween-80.
Setting [12] is: dose: 25.0 mg/kg/injection, schedule: Q01DX001 (ip), vehicle: saline with Tween-80.
Where [13] appears, read: dose: 50.0 mg/kg/injection, schedule: Q01DX001 (ip), vehicle: saline with Tween-80.
Where [14] appears, read: dose: 50.0 mg/kg/injection, schedule: Q04DX003 (ip), vehicle: Klucel (hydroxypropylcellulose) (HPC).
Where [15] appears, read: dose: 100.0 mg/kg/injection, schedule: Q04DX003 (ip), vehicle: Klucel (hydroxypropylcellulose) (HPC).
Where [16] appears, read: dose: 100.0 mg/kg/injection, schedule: Q01DX009 (ip), vehicle: Klucel (hydroxypropylcellulose) (HPC).
Where [17] appears, read: dose: 200.0 mg/kg/injection, schedule: Q04DX003 (ip), vehicle: Klucel (hydroxypropylcellulose) (HPC).
The mark [18] stands for this setting: dose: 50.0 mg/kg/injection, schedule: Q01DX009 (ip), vehicle: Klucel (hydroxypropylcellulose) (HPC).
Where [19] appears, read: dose: 25.0 mg/kg/injection, schedule: Q01DX009 (ip), vehicle: saline with Tween-80.

Several values for one entry are separate records, joined by “and”; a condition that tells them apart may be missing. Equal entries are not always repeated. Toxic doses and inconclusive results are not listed.

Consider `COc1cc(O)c2c(c1)C(=O)c1cc3c(c(O)c1C2=O)C(OC1OC(C)C(OC)C(O)C1OC)C(OC)C(C)(O)C3=O` (stereo unspecified), for which the T/C was 86 % of control (dose: 17.5 mg/kg/injection, schedule: Q01DX009 (ip), vehicle: saline); 93 % of control (dose: 35.0 mg/kg/injection, schedule: Q01DX009 (ip), vehicle: saline); 97 % of control under setting [1]; 93 % of control (dose: 70.0 mg/kg/injection, schedule: Q01DX009 (ip), vehicle: saline); 120 % of control under setting [2]; 116 % of control under setting [3].
As to `CCCCCCCCSSCCCCCCCC`, the T/C is 95 % of control under setting [4], 100 % of control under setting [5] and 95 % of control under setting [6].
With `CCCCCCCCCC(O)CCCCC` (stereo unspecified), the T/C runs as follows: (dose: 20.0 mg/kg/injection, schedule: Q01DX009 (ip), vehicle: saline with Tween-80) 100 % of control; under setting [7], 95 % of control; (dose: 45.0 mg/kg/injection, schedule: Q01DX009 (ip), vehicle: saline with Tween-80) 100 % of control; under setting [8], 108 % of control; (dose: 90.0 mg/kg/injection, schedule: Q01DX009 (ip), vehicle: saline with Tween-80) 104 % of control; under setting [2], 113 % of control. The T/C is 170 % of control (dose: 100.0 mg/kg/injection, schedule: Q01DX009 (ip), vehicle: saline); 100 % of control under setting [9]; 95 % of control (dose: 135.0 mg/kg/injection, schedule: Q01DX009 (ip), vehicle: saline with Tween-80); 108 % of control under setting [3]; 95 % of control under setting [10]; 113 % of control (dose: 400.0 mg/kg/injection, schedule: Q01DX009 (ip), vehicle: saline with Tween-80). Also, under setting [11], the T/C was 100 % of control.
As for `Cc1nn(CCO)c(C)c1N=[N+]([O-])c1c(C)nn(CCO)c1C`, the T/C (dose: 15.0 mg/kg/injection, schedule: Q01DX009 (ip), vehicle: saline with Tween-80) is 114 % of control.
For `COC(=O)C(Cc1ccccc1)NS(=O)(=O)c1ccc(C)cc1` (stereo unspecified), the T/C was 92 % of control (dose: 12.5 mg/kg/injection, schedule: Q01DX005 (ip), vehicle: saline with Tween-80); 90 % of control (dose: 25.0 mg/kg/injection, schedule: Q01DX005 (ip), vehicle: saline with Tween-80); 87 % of control and 92 % of control (dose: 50.0 mg/kg/injection, schedule: Q01DX005 (ip), vehicle: saline with Tween-80); 111 % of control (dose: 200.0 mg/kg/injection, schedule: Q01DX005 (ip), vehicle: saline with Tween-80).
In the case of `N#C/C(=C/c1ccccc1)CBr`, the T/C was 102 % of control under setting [12] and 93 % of control under setting [13].
Turning to `ClCC1CNC(c2ccccc2)O1` (stereo unspecified), the T/C is, setting by setting: (dose: 12.5 mg/kg/injection, schedule: Q04DX003 (ip), vehicle: saline with Tween-80) 101 % of control; under setting [7], 104 % of control.
Consider `O=C(/C=N\O)c1ccncc1`, for which the T/C was 100 % of control under setting [14] and 100 % of control under setting [15].
Consider `Nc1ccc2c(-c3cccc([N+](=O)[O-])c3)cc(=O)[nH]c2n1`, for which the T/C by setting is: under setting [4], 88 % of control; under setting [5], 87 % of control; under setting [6], 87 % of control.
For `CSc1cccc(NC(C)=O)c1`, the T/C under setting [16] was 95 % of control; the T/C under setting [9] is 104 % of control; the T/C under setting [10] is 100 % of control; the T/C (dose: 400.0 mg/kg/injection, schedule: Q01DX009 (ip), vehicle: Klucel (hydroxypropylcellulose) (HPC)) was 95 % of control; the T/C under setting [11] is 109 % of control.
For the molecule `CN(C)c1ccc(C(/C=N\O)(c2ccc(N(C)C)cc2)c2ccc(N(C)C)cc2)cc1`, the T/C is 104 % of control under setting [15]; 100 % of control under setting [17]; 109 % of control (dose: 400.0 mg/kg/injection, schedule: Q04DX003 (ip), vehicle: Klucel (hydroxypropylcellulose) (HPC)).
With `O=C(NNc1ccccc1)c1ccccc1`, the T/C is 105 % of control under setting [18]; 109 % of control under setting [14]; 105 % of control under setting [16]; 104 % of control under setting [15]; 120 % of control (dose: 200.0 mg/kg/injection, schedule: Q01DX009 (ip), vehicle: Klucel (hydroxypropylcellulose) (HPC)); 100 % of control under setting [17].
Turning to `O=C1CC(Nc2ccccc2)=C([N+](=O)[O-])C(=O)N1`, the T/C is 109 % of control under setting [1], 102 % of control under setting [2] and 109 % of control under setting [3].
In the case of `Cc1n(Cc2ccccc2)c2c([n+]1C)C(=O)c1ccccc1C2=O`, the T/C by setting is: (dose: 0.5 mg/kg/injection, schedule: Q01DX010 (ip), vehicle: saline) 100 % of control; (dose: 1.0 mg/kg/injection, schedule: Q01DX010 (ip), vehicle: saline) 109 % of control; (dose: 2.0 mg/kg/injection, schedule: Q01DX010 (ip), vehicle: saline) 113 % of control; (dose: 125.0 micrograms/kg/injection, schedule: Q01DX009 (ip), vehicle: Klucel (hydroxypropylcellulose) (HPC)) 105 % of control; (dose: 250.0 micrograms/kg/injection, schedule: Q01DX009 (ip), vehicle: Klucel (hydroxypropylcellulose) (HPC)) 100 % of control; (dose: 500.0 micrograms/kg/injection, schedule: Q01DX009 (ip), vehicle: Klucel (hydroxypropylcellulose) (HPC)) 110 % of control. The T/C (dose: 1000.0 micrograms/kg/injection, schedule: Q01DX009 (ip), vehicle: Klucel (hydroxypropylcellulose) (HPC)) is 115 % of control and the T/C (dose: 2000.0 micrograms/kg/injection, schedule: Q01DX009 (ip), vehicle: Klucel (hydroxypropylcellulose) (HPC)) is 120 % of control.
Take `O=P(Oc1cccc2ccccc12)(N1CC1)N1CC1`: the T/C was 181 % of control under setting [2]; 122 % of control under setting [9]; 231 % of control (dose: 150.0 mg/kg/injection, schedule: Q01DX009 (ip), vehicle: saline with Tween-80); 150 % of control under setting [10]; 200 % of control (dose: 264.0 mg/kg/injection, schedule: Q04DX003 (ip), vehicle: saline with Tween-80); 181 % of control and 220 % of control under setting [11].
Take `CSc1cc(C(N)=O)c2c(N)nc(SC)nc2n1`: the T/C was 111 % of control under setting [12]; 109 % of control under setting [13]; 100 % of control and 111 % of control (dose: 100.0 mg/kg/injection, schedule: Q01DX001 (ip), vehicle: saline with Tween-80); 100 % of control (dose: 400.0 mg/kg/injection, schedule: Q01DX001 (ip), vehicle: saline with Tween-80).
For the molecule `CSc1cccc(NC(=O)OCCOc2ccc(Br)cc2)c1`, the T/C by setting is: (dose: 12.5 mg/kg/injection, schedule: Q01DX009 (ip), vehicle: Klucel (hydroxypropylcellulose) (HPC)) 109 % of control; (dose: 25.0 mg/kg/injection, schedule: Q01DX009 (ip), vehicle: Klucel (hydroxypropylcellulose) (HPC)) 105 % of control; under setting [18], 102 % of control.
For `O=C(C/C(=N\C(=S)Nc1cc(C(F)(F)F)ccc1Cl)NO)N1CCCC1`, the T/C under setting [1] is 110 % of control.
As for `CCCCCCCCCCCCCCC(F)C(=O)OCC1OC(CO)(OC2OC(CO)C(O)C(O)C2O)C(O)C1O` (stereo unspecified), the T/C under setting [19] is 116 % of control, the T/C under setting [1] was 108 % of control, the T/C under setting [8] is 108 % of control and the T/C under setting [9] is 91 % of control.
Turning to `COC(=O)/C(=C1/OC(=O)C(c2ccccc2)=C1O)c1ccccc1`, the T/C is 100 % of control (dose: 6.25 mg/kg/injection, schedule: Q01DX009 (ip), vehicle: saline with Tween-80); 115 % of control (dose: 11.0 mg/kg/injection, schedule: Q01DX009 (ip), vehicle: saline with Tween-80); 90 % of control (dose: 12.5 mg/kg/injection, schedule: Q01DX009 (ip), vehicle: saline with Tween-80); 105 % of control (dose: 16.5 mg/kg/injection, schedule: Q01DX009 (ip), vehicle: saline with Tween-80); 109 % of control and 112 % of control under setting [19]; 95 % of control (dose: 37.5 mg/kg/injection, schedule: Q01DX009 (ip), vehicle: saline with Tween-80). Besides, the T/C under setting [1] is 100 % of control.

(Values after PubChem BioAssay AID328 (DTP/NCI, 2004).)
